In ChEMBL document CHEMBL1201862, “PubChem BioAssay data set” (2004):
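In this assay, cells in 96-well plates receive the compound at five concentrations for 48 hours. Endpoints are linearly interpolated between the surrounding concentrations. At the GI50, growth is halved.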 Active and inactive are the calls of the source. Rule as the data show it: active = GI50 up to about 1.1 µM and inactive = higher.

What was measured:
Test in all cases: NCI-60 cell line screen, 48 h
786-0 = tested on: 786-0
HCC 2998 = tested on: HCC 2998
HT-29 = tested on: HT-29
Hs-578T = tested on: Hs-578T
IGROV-1 = tested on: IGROV-1
K562 = tested on: K562
MDA-MB-231 = tested on: MDA-MB-231
MDA-MB-435 = tested on: MDA-MB-435
MOLT-4 = tested on: MOLT-4
NCI-H226 = tested on: NCI-H226
NCI-H23 = tested on: NCI-H23
NCI-H460 = tested on: NCI-H460
RXF 393 = tested on: RXF 393
SK-MEL-2 = tested on: SK-MEL-2
SR = tested on: SR
SW-620 = tested on: SW-620
UACC-62 = tested on: UACC-62
LOX IMVI = tested on: LOX IMVI

SMILES | GI50 (786-0) | GI50 (HCC 2998) | GI50 (HT-29) | GI50 (Hs-578T) | GI50 (IGROV-1) | GI50 (K562) | GI50 (MDA-MB-231) | GI50 (MDA-MB-435) | GI50 (MOLT-4) | GI50 (NCI-H226) | GI50 (NCI-H23) | GI50 (NCI-H460) | GI50 (RXF 393) | GI50 (SK-MEL-2) | GI50 (SR) | GI50 (SW-620) | GI50 (UACC-62) | GI50 (LOX IMVI)
COc1ccc2[nH]c3c(C)c4ncccc4c(C)c3c2c1 | 1.52 µM (inactive) | 8.97 µM (inactive) | 2.22 µM (inactive) | > 10 µM (inactive) | > 10 µM (inactive) | 3.68 µM (inactive) | > 10 µM (inactive) | 1.82 µM (inactive) | 4.04 µM (inactive) | 4.41 µM (inactive) | > 10 µM (inactive) | 2.12 µM (inactive) | 3.59 µM (inactive) | > 10 µM (inactive) | 5.22 µM (inactive) | 1.98 µM (inactive) | > 10 µM (inactive) | 
C=C1C(=O)O[C@H]2C1C[C@@H](O)[C@@]1(C)OC1CC[C@@]1(C)O[C@H]21 (some centres undefined) | 22.1 µM (inactive) | 15.2 µM (inactive) | 32.8 µM (inactive) | 28.6 µM (inactive) | > 10 µM (inactive) | 9.33 µM (inactive) | 19.1 µM (inactive) | 21 µM (inactive) | 5.94 µM (inactive) |  | 17 µM (inactive) | 57.9 µM (inactive) | 17.9 µM (inactive) | 17.6 µM (inactive) | 14.1 µM (inactive) | 13.3 µM (inactive) | 15.3 µM (inactive) | 13.2 µM (inactive)
c1ccc2c(c1)nc1n2sc2nc3ccccc3n21 | > 100 µM (inactive) | > 100 µM (inactive) | > 100 µM (inactive) | > 100 µM (inactive) | > 100 µM (inactive) | > 100 µM (inactive) | > 100 µM (inactive) | > 100 µM (inactive) | > 100 µM (inactive) | > 100 µM (inactive) | > 100 µM (inactive) | > 100 µM (inactive) |  | > 100 µM (inactive) | > 100 µM (inactive) | > 100 µM (inactive) | 51.6 µM (inactive) | > 100 µM (inactive)
COc1ccc2c(Cl)cc(NC(=S)Nc3ccccc3)nc2c1 | 22.3 µM (inactive) |  | 22.4 µM (inactive) | 14.4 µM (inactive) | 20.8 µM (inactive) | 23.4 µM (inactive) | 26.4 µM (inactive) | 17.7 µM (inactive) | 25.2 µM (inactive) | 55.5 µM (inactive) | 23.4 µM (inactive) | 32.3 µM (inactive) | 20.2 µM (inactive) | 22.4 µM (inactive) | 26.2 µM (inactive) | 26.4 µM (inactive) | 17.2 µM (inactive) | 21.1 µM (inactive)
COC(=O)CCC(=O)c1ccc2c(c1)CC1(Cc3ccccc3C1)C2 | 94.6 µM (inactive) | 55.8 µM (inactive) | 20.1 µM (inactive) | > 100 µM (inactive) | > 100 µM (inactive) | 0.218 µM (active) | > 100 µM (inactive) | 64 µM (inactive) | 17.7 µM (inactive) | 24.7 µM (inactive) | 40.1 µM (inactive) |  | > 100 µM (inactive) | 34.7 µM (inactive) | 14.7 µM (inactive) |  | > 100 µM (inactive) | 36.2 µM (inactive)
CCn1c(-c2ccc(OC)cc2)nc2c1C(=O)c1ccccc1C2=O | > 100 µM (inactive) | > 100 µM (inactive) | > 100 µM (inactive) | > 100 µM (inactive) | > 100 µM (inactive) | > 100 µM (inactive) | > 100 µM (inactive) | > 100 µM (inactive) | > 100 µM (inactive) | 61.1 µM (inactive) | > 100 µM (inactive) | > 100 µM (inactive) | > 100 µM (inactive) |  | > 100 µM (inactive) | > 100 µM (inactive) | > 100 µM (inactive) | 
COc1cc(NCc2ccc3n2-c2ccccc2OC3)cc(OC)c1OC | 47.1 µM (inactive) | 16.1 µM (inactive) | 35.5 µM (inactive) | 35.4 µM (inactive) | 14 µM (inactive) | 8.36 µM (inactive) | 14.4 µM (inactive) | 14 µM (inactive) |  | 28.8 µM (inactive) | 35.2 µM (inactive) | 30.1 µM (inactive) | 24.6 µM (inactive) | 20 µM (inactive) | 11.8 µM (inactive) | 35.6 µM (inactive) | 19 µM (inactive) | 10.4 µM (inactive)
CCCNCC(O)CNc1ccc(NCC(O)CNCCC)c2c1C(=O)c1ccccc1C2=O (centres undefined) | 2.03 µM (inactive) | 1.38 µM (inactive) | 2.17 µM (inactive) | 3.61 µM (inactive) | 2.04 µM (inactive) | 2.14 µM (inactive) | 2.98 µM (inactive) | 2.81 µM (inactive) | 1.26 µM (inactive) | 2 µM (inactive) | 3.24 µM (inactive) | 2.42 µM (inactive) |  | 2.16 µM (inactive) | 2.42 µM (inactive) | 2.05 µM (inactive) | 1.9 µM (inactive) | 1.44 µM (inactive)
